Assays:
Assay type in all cases: in vitro ADME, pig
[1] = Reverse iontophoretic extraction of Trp and Kyn in side-by-side cells; details: for Flux at anode / Flux at cathode / Cumulative amount at anode / Cumulative amount at cathode: mean ± SEM
Description: Due to the small molecular weight, Trp and Kyn are good candidates for non-invasive monitoring as their passive permeation across the skin membrane is not restricted by the SC's ‘500 Dalton’ rule. Moreover, because of their polar nature (zwitterionic at neutral pH), these compounds are perfect candidates for extraction by reverse iontophoresis. The non-invasive reverse iontophoretic sampling of Trp and Kyn was conducted in vitro using side-by-side cells consisting of two receptor compartments (anodal & cathodal) and a subdermal compartment. Reverse iontophoretic and passive extraction experiments were performed using identical experimental conditions. […] The reverse iontophoretic extraction was performed by application of a constant current 0.3 mA ([…]) for 6 hours in total. Sampling was performed every hour by withdrawing 1 mL of receptor solution and the amount of permeated compound was determined by HPLC-UV. […] The reservoir consists primarily of amino acids and amino acid derivatives originating from proteolysis of filaggrin.
(§1) Pig skin, purchased from a local abattoir, was gently cleaned post-sacrifice under cold running water. The skin from abdomen or from the inside of the outer ear was used as in vitro skin model. The hair was trimmed and the skin was dermatomed to a final thickness of 750 μm (Dermatome, Integra LifeSciences, Plainsboro, NJ, USA). Skin samples were then wrapped individually in Parafilm™ and kept at −20° C. for not more than three months until use. Prior to extraction experiments, skin was cut into 4 cm^2 membranes while still being frozen. Prepared skin membranes were then left at ambient environment for 30 minutes to thaw and obtain room temperature. The integrity of each skin membrane was visually inspected against the light in order to ensure that there were no visible damages (holes). Hairs were then further trimmed with scissors and skin was gently rinsed under cold running water.
The Ag/AgCl electrode couple were preferred over platinum because it avoids the sharp decrease in the pH of the solution as their electrochemistry occurs at voltages considerably lower than those required for electrolysis of water. The electrodes were prepared by making a small loop at one of the ends of the silver wire and dipping it into the molten silver chloride in order to coat the loop with AgCl. After cooling, anodal electrodes were prepared by conditioning AgCl coated loops overnight against a platinum wire anode (0.2 mm in diameter, Sigma), at 0.3 mA with 50 mM NaCl as an electrolyte solution resulting in the formation of a layer of silver on the outer surface of the electrodes.
where zp, up, cp are the charge, mobility and concentration of the permeant, ID is the current density (=I/A), F is the Faraday's constant and summation includes all the species in solution that can carry the charge, v is the solvent velocity. Electromigration is a direct cause of current application, which leads to a formation of an electric field across the skin.

[2] = Passive diffusion extraction of Trp and Kyn; details: for Normalized cumulative amount Passive / Cumulative amount Passive / Flux Passive: mean ± SEM
Description: as §1, with “The hair was trimmed and the skin was dermatomed to a final thickness of 750 μm (Dermatome, Integra LifeSciences, Plainsboro, NJ, USA).” left out
In order to determine if reverse iontophoresis can enhance the extraction of Trp compared to their passive diffusion extraction, similar experiments were conducted without the current passage. These passive diffusion experiments were conducted using the same horizontal side-by-side cell setup in parallel to reverse iontophoresis experiments in order to ensure identical conditions. In line with reverse iontophoretic experiment, after the 6-hour sampling, subdermal compartment was emptied and experiment was allowed to continue for another 18 hours. Passive diffusion experiments were repeated four times (n=4).
Prior to HPLC-UV analysis, samples were thawed and vortexed.
Anodal, cathodal and passive fluxes of Trp and Kyn were directly calculated from the amount (mol) extracted at each sampling interval and normalized for the surface area available for extraction (0.785 cm^2) and duration of the interval (in hours). The 6-hour flux values were used for the analysis of transport direction as well for comparison between reverse iontophoretic and passive extraction efficiency. The physiochemical properties of both endogenous substances were estimated. In order to compare results, the enhancement ratio (ER) was determined after 6 hours as […]

[3] = Reverse iontophoretic extraction into GMO cubic phase receptor matrix; details: for Cumulative amount Cubic at anode / Cumulative amount Cubic at cathode: in the cubic phase, 6 h, HEPES pH 7.4; for Cumulative amount Total at anode / Cumulative amount Total at cathode: sum of receptor solution after 6 hours and cubic phase
Description: Another objective of the present intention was to investigate the potency of a liquid crystalline cubic phase formed by GMO and water to serve as a matrix for iontophoresis. In order to keep experimental conditions as similar as possible to the previously described experiments, the same horizontal side-by-side cells were used. A fully swollen cubic phase (Pn3m space group) was added into a custom-made sample holder ensuring the formulation was in contact with the skin. In order to prevent contact between the cubic phase and the electrodes, 2 mL of HEPES buffer (pH 7.4, 60 mM NaCl) was added to each receptor compartment. Sampling was performed by withdrawing 1 ml of receptor solution and replacing it with a 1 mL of empty buffer every hour for 6 hours. After the last sampling, the experiment was terminated, and the cubic phase was collected for further analysis. […] It is important to point out that partitioning of Trp and Kyn into cubic bilayer was not taken into account during the calculation of the extracted amounts of respective endogenous substance. The amounts were determined based on the volume of the receptor matrix (100 μL).
The samples for reverse iontophoretic extraction experiments consisting of a liquid crystalline cubic phase were prepared by weighing 0.1 g of glycerol monooleate (GMO) in a 1.8 mL glass vials. GMO was then melted at 45° C. by immersing the vials in the water bath and centrifuged at 1000 g for 5 minutes. The vials were then placed in the freezer (−20° C.) for 30 minutes in order for GMO to crystalize. After crystallization vials were taken out of the freezer and 0.5 g of Milli-Q water was added to each vial, ensuring the excess of added water. […] Prior to use, each vial was examined between cross polarizers for any sign of anisotropy, which would imply that sample had not yet reached equilibrium. […]

[4] = pH 7.4, after 4 hours of iontophoresis
[5] = receptor pH 4.0, after 6 hours of iontophoresis
[6] = receptor pH 4.0, donor pH 7.4, after 6 h
[7] = receptor pH 7.4, after 6 hours of iontophoresis
[8] = receptor pH 7.4, donor pH 7.4, after 6 h
[9] = receptor pH 9.0, after 6 hours of iontophoresis
[10] = receptor pH 9.0, donor pH 7.4, after 6 h
[11] = pH 4.0, 24 h amount minus first 6 hours
[12] = pH 7.4, 24 h amount minus first 6 hours
[13] = pH 9.0, 24 h amount minus first 6 hours
[14] = pH 7.4, after the first hour of current application
[15] = receptor pH 4.0, iontophoretic vs passive cumulative amount after 6 hours
[16] = receptor pH 7.4, iontophoretic vs passive cumulative amount after 6 hours
[17] = receptor pH 9.0, iontophoretic vs passive cumulative amount after 6 hours

Nc1ccccc1C(=O)C[C@H](N)C(=O)O [Kyn, L-kynurenine]
cumulative amount extracted towards the cathode (QC) [1, 4]: 2.50±0.44 nmol/cm^2
Flux at anode [1, 5]: 0.18 ± 0.09 nmol/(h · cm^2)
Flux at cathode [1, 5]: 0.93 ± 0.23 nmol/(h · cm^2)
Cumulative amount at anode [1, 6]: 0.91 ± 0.44 nmol/cm^2
Cumulative amount at cathode [1, 6]: 3.76 ± 0.89 nmol/cm^2
Flux at anode [1, 7]: 0.11 ± 0.08 nmol/(h · cm^2)
Flux at cathode [1, 7]: 1.88 ± 0.18 nmol/(h · cm^2)
Cumulative amount at anode [1, 8]: 0.25 ± 0.17 nmol/cm^2
Cumulative amount at cathode [1, 8]: 5.97 ± 0.73 nmol/cm^2
Flux at anode [1, 9]: 0.52 ± 0.23 nmol/(h · cm^2)
Flux at cathode [1, 9]: 1.99 ± 0.16 nmol/(h · cm^2)
Cumulative amount at anode [1, 10]: 0.64 ± 0.27 nmol/cm^2
Cumulative amount at cathode [1, 10]: 6.38 ± 0.62 nmol/cm^2
Normalized cumulative amount Passive [2, 11]: 0.27 ± 0.27 nmol/cm^2
Normalized cumulative amount Passive [2, 12]: 2.59 ± 1.50 nmol/cm^2
Normalized cumulative amount Passive [2, 13]: 3.81 ± 0.93 nmol/cm^2
Cumulative amount Passive [2, 6]: <LOQ
Cumulative amount Passive [2, 8]: <LOQ
Cumulative amount Passive [2, 10]: <LOQ
Cumulative amount Cubic at anode [3]: 0.28 ± 0.28 nmol/cm^2
Cumulative amount Cubic at cathode [3]: 5.62 ± 0.45 nmol/cm^2
Cumulative amount Total at anode [3]: 0.28 ± 0.28 nmol/cm^2
Cumulative amount Total at cathode [3]: 7.53 ± 0.83 nmol/cm^2

N[C@@H](Cc1c[nH]c2ccccc12)C(=O)O [Trp, L-tryptophan]
cumulative amount extracted towards the cathode (QC) [1, 4]: 3.59±0.43 nmol/cm^2
cumulative amount extracted to the anode (QA) ([1]; pH 7.4, after 5 hours of current application): 1.03±0.08 nmol/cm^2
cumulative amount at cathode, times higher than at anode ([1]; pH 7.4, after 6 hours): ~6
cumulative amount extracted to the anode (QA) [1, 14]: 0.28±0.06 nmol/cm^2
cumulative amount extracted towards the cathode (QC) [1, 14]: 0.49±0.04 nmol/cm^2
Flux at anode [1, 5]: 0.35 ± 0.12 nmol/(h · cm^2)
Flux at cathode [1, 5]: 1.03 ± 0.21 nmol/(h · cm^2)
Cumulative amount at anode [1, 6]: 2.01 ± 0.65 nmol/cm^2
Cumulative amount at cathode [1, 6]: 4.39 ± 0.87 nmol/cm^2
Ratio Trp/Kyn (after 6 h) ([1]; receptor pH 4.0, from cathode fluxes): 1.01
Ratio Trp/Kyn (after 6 h) ([1]; receptor pH 4.0, from cumulative amounts at the cathode): 1.35 ± 0.24
ER Anode [1, 15]: 11
ER Cathode [1, 15]: 24
Flux at anode [1, 7]: 0.24 ± 0.07 nmol/(h · cm^2)
Flux at cathode [1, 7]: 2.02 ± 0.19 nmol/(h · cm^2)
Cumulative amount at anode [1, 8]: 1.27±0.13 nmol/cm^2
Cumulative amount at cathode [1, 8]: 7.36±0.75 nmol/cm^2
Ratio Trp/Kyn (after 6 h) ([1]; receptor pH 7.4, from cathode fluxes): 1.07
Ratio Trp/Kyn (after 6 h) ([1]; receptor pH 7.4, from cumulative amounts at the cathode): 1.25 ± 0.03
ER Anode [1, 16]: 2
ER Cathode [1, 16]: ~12
Flux at anode [1, 9]: 0.69 ± 0.23 nmol/(h · cm^2)
Flux at cathode [1, 9]: 2.32 ± 0.15 nmol/(h · cm^2)
Cumulative amount at anode [1, 10]: 1.62 ± 0.26 nmol/cm^2
Cumulative amount at cathode [1, 10]: 8.15 ± 0.59 nmol/cm^2
Ratio Trp/Kyn (after 6 h) ([1]; receptor pH 9.0, from cathode fluxes): 1.17
Ratio Trp/Kyn (after 6 h) ([1]; receptor pH 9.0, from cumulative amounts at the cathode): 1.29 ± 0.03
ER Anode [1, 17]: 2
ER Cathode [1, 17]: 11
Normalized cumulative amount Passive [2, 11]: 0.49 ± 0.49 nmol/cm^2
Ratio (Trp/Kyn) Passive ([2]; pH 4.0, from normalized cumulative amounts): 1.81
Normalized cumulative amount Passive [2, 12]: 2.87 ± 1.66 nmol/cm^2
cumulative amount by passive diffusion (QP) ([2]; pH 7.4, after 5 hours): 0.54±0.12 nmol/cm^2
cumulative amount by passive diffusion (QP) ([2]; pH 7.4, after the first hour): 0.30±0.04 nmol/cm^2
Ratio (Trp/Kyn) Passive ([2]; pH 7.4, from normalized cumulative amounts): 1.27
Normalized cumulative amount Passive [2, 13]: 3.50 ± 0.48 nmol/cm^2
Ratio (Trp/Kyn) Passive ([2]; pH 9.0, from normalized cumulative amounts): 1.22 ± 0.19
Flux Passive ([2]; receptor pH 4.0, after 6 hours): 0.01 ± 0.01 nmol/(h · cm^2)
Cumulative amount Passive [2, 6]: 0.18±0.18 nmol/cm^2
Flux Passive ([2]; receptor pH 7.4, after 6 hours): 0.07 ± 0.03 nmol/(h · cm^2)
Cumulative amount Passive [2, 8]: 0.62±0.13 nmol/cm^2
Flux Passive ([2]; receptor pH 9.0, after 6 hours): 0.10 ± 0.03 nmol/(h · cm^2)
Cumulative amount Passive [2, 10]: 0.72±0.09 nmol/cm^2
Ratio Trp/Kyn at cathode cubic ([3]; from amounts in the cubic phase): 0.94 ± 0.04
Ratio Trp/Kyn at cathode total ([3]; from the total cumulative amount): 0.86 ± 0.05
Cumulative amount Cubic at anode [3]: 0.68 ± 0.05 nmol/cm^2
Cumulative amount Cubic at cathode [3]: 5.29 ± 0.48 nmol/cm^2
Cumulative amount Total at anode [3]: 0.68 ± 0.05 nmol/cm^2
Cumulative amount Total at cathode [3]: 6.57 ± 1.00 nmol/cm^2
